Measured values: US20110077237A1, “KINASE INHIBITORS” (VERTEX PHARMACEUTICALS INCORPORATED, priority 2007, published 2011)

Experiments:
Assay type in all cases: biochemical
PKC theta = PKC theta (Homo sapiens, UniProt Q04759); experiment: PKC Theta I coupled-enzyme (NADH absorbance) kinase assay; conditions: 18 nM PKC theta, 240 μM ATP, 30° C., absorbance at 340 nm
Procedure: (§1) An assay buffer solution was prepared which consisted of 100 mM HEPES (pH 7.5), 10 mM MgCl2, 25 mM NaCl, 0.1 mM EDTA and 0.01% Brij. […] To 60 μL of this enzyme buffer, in a 384 well plate, was added 2 μL of VRT stock solution in DMSO. The mixture was allowed to equilibrate for 10 mins at 30° C. […] Ki values were calculated from initial rate data by non-linear regression using the Prism software package (Prism 4.0a, Graphpad Software, San Diego, Calif.).

PKC alpha kinase = PKC alpha kinase (Homo sapiens, UniProt P17252); experiment: PKC Alpha coupled-enzyme kinase assay; conditions: 4.5 nM PKC alpha, 130 μM ATP, 30° C.
Procedure: An assay buffer solution was prepared which consisted of 100 mM HEPES (pH 7.5), 10 mM MgCl2, 25 mM NaCl, 0.1 mM EDTA, 100 μM CaCl2 and 0.01% Brij. […] To 16 μL of this enzyme buffer, in a 384 well plate, was added 1 μL of VRT stock solution in DMSO. The mixture was allowed to equilibrate for 10 mins at 30° C. The enzyme reaction was initiated by the addition of 16 μL stock ATP solution prepared in assay buffer to a final assay concentration of 130 μM. Initial rate data was determined from the rate of change of absorbance at 340 nm (corresponding to stoichiometric consumption of NADH) using a Molecular Devices Spectramax plate reader (Sunnyvale, Calif.) over 15 mins at 30° C. For each Ki determination 12 data points covering the VRT concentration range of 0-20 μM were obtained in duplicate (DMSO stocks were prepared from an initial 10 mM VRT stock with subsequent 1:2 serial dilutions). Ki values were calculated from initial rate data by non-linear regression using the Prism software package (Prism 4.0a, Graphpad Software, San Diego, Calif.).

PKC delta kinase = PKC delta kinase (Homo sapiens, UniProt Q05655); experiment: PKC Delta coupled-enzyme kinase assay; conditions: 46 nM PKC delta, 150 μM ATP, 30° C.; read-out: Ki PKC delta
Sequence of PKC delta kinase (Q05655 whole entry): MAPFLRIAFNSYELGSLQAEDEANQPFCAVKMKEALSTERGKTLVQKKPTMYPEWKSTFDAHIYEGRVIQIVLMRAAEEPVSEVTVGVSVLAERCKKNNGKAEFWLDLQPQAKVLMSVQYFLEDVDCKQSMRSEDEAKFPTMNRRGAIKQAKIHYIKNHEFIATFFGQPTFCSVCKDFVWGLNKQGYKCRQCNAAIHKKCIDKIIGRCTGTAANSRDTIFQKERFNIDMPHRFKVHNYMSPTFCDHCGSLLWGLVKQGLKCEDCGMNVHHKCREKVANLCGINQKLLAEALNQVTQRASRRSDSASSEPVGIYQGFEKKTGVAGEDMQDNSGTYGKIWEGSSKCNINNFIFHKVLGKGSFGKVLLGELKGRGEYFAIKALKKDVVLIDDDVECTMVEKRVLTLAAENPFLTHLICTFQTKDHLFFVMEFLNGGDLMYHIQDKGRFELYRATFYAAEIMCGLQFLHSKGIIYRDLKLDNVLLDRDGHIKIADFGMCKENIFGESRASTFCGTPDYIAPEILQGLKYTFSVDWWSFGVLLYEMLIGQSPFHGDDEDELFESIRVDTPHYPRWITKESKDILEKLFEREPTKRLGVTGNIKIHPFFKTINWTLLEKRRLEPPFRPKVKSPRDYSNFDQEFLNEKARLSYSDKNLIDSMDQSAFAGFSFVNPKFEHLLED
Procedure: as §1, with “To 16” for “To 60”, “added 1” for “added 2”

Sequence of PKC theta (Q04759 whole entry): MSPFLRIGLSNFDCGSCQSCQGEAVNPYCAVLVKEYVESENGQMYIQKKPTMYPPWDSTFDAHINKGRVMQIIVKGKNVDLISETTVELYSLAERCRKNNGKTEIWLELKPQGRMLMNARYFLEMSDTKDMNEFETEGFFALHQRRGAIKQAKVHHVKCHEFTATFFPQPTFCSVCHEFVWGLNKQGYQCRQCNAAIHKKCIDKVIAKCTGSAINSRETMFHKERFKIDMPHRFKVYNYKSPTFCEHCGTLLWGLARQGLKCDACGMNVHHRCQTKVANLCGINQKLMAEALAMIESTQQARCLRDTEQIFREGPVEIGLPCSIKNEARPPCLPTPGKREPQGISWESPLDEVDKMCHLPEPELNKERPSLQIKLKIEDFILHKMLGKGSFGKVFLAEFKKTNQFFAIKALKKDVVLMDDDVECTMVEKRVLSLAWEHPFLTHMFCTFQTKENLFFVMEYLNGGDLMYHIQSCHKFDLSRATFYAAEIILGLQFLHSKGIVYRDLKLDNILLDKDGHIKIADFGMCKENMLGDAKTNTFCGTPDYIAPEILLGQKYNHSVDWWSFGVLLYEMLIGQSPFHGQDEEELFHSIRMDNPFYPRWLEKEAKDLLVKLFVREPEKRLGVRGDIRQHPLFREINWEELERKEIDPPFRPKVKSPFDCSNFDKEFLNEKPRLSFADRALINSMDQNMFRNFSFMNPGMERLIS

SMILES | Ki (PKC theta) [nM] | Ki (PKC alpha kinase) [nM] | Ki (PKC delta kinase) [nM]
Nc1ncc(Br)cc1C(=O)c1cccc(N2CCN(CCO)CC2)n1 [compound 97] | 500 to 2800 |  | 
Cc1cn(C2CCCNCC2)nc1C(=O)c1cccnc1N (stereo not shown) [compound 212] | 500 to 2800 |  | 
COC(=O)N1CCCN(c2cccc(C(=O)c3cc(Br)cnc3N)n2)CC1 [compound 69] | 500 to 2800 |  | 
NC(=O)CNc1ccc(C(F)(F)F)c(C(=O)c2cccnc2N)n1 [compound 386] | 500 to 2800 | 500 to 2800 | 500 to 2800
CN(Cc1ccccc1)C(=O)c1ccc(C(=O)c2cccnc2N)s1 [compound 103] | 500 to 2800 |  | 
CC(C)(O)C(=O)N1CCCN(c2cccc(C(=O)c3cccnc3N)n2)CC1 [compound 19] | 500 to 2800 |  | > 2800
Nc1ncc(-c2ccccc2O)cc1C(=O)c1cccc(N2CCNC(c3ccccc3)C2)n1 (stereo not shown) [compound 259] | 500 to 2800 |  | 
Nc1ncc(-c2ccccc2CO)cc1C(=O)c1cccc(N2CCNC(c3ccccc3)C2)n1 (stereo not shown) [compound 281] | 500 to 2800 |  | 
Nc1ncccc1C(=O)c1cccc(N2CCN(C(=O)CC(F)(F)F)CC2)n1 [compound 224] | 500 to 2800 |  | 
CCN(Cc1ccccc1)c1cccc(C(=O)c2cc(Br)cnc2N)n1 [compound 142] | 500 to 2800 |  | 
CN(CC(O)c1ccccc1)c1cccc(C(=O)c2cc(Br)cnc2N)n1 (stereo not shown) [compound 124] | 500 to 2800 |  | 
Nc1ncc(NCc2ccccc2)cc1C(=O)c1cccc(N2CCCNCC2)n1 [compound 190] | 500 to 2800 |  | 
Nc1ncccc1C(=O)c1cc(N2CCNCC2)ncc1F [compound 319] | 500 to 2800 |  | 
C[C@@H]1CNC[C@H](C)N1c1cccc(C(=O)c2cccnc2N)n1 [compound 234] | 500 to 2800 |  | 
Nc1ncccc1C(=O)c1csc(N2CCCNCC2)n1 [compound 125] | 500 to 2800 |  | 
Nc1ncc(Br)cc1C(=O)c1cccc(NCCCN2CCCC2)n1 [compound 177] | 500 to 2800 |  | 
Nc1ncc(Br)cc1C(=O)c1cccc(N2CCN(C3CCCC3)CC2)n1 [compound 144] | 500 to 2800 |  | 
Nc1ncc(Br)cc1C(=O)c1cc(N2CCCNCC2)cs1 [compound 83] | 500 to 2800 |  | 
Cc1ccc(C(=O)c2cccnc2N)nc1N1CCCNCC1 [compound 229] | 500 to 2800 |  | 
Nc1ncc(Br)cc1C(=O)c1cccc(N2CC[C@H](O)C2)n1 [compound 123] | 500 to 2800 |  | 
Cc1ccc(C(=O)c2cccnc2N)nc1N1CCNCC1 [compound 236] | 500 to 2800 |  | 
Nc1ncccc1C(=O)c1cccc(N2CCN[C@@H](Cc3ccccc3)C2)n1 [compound 215] | 500 to 2800 |  | 
Nc1ncccc1C(=O)c1cccc(N2CCC(NC3CC3)CC2)n1 [compound 148] | 500 to 2800 |  | 
Nc1ncccc1C(=O)c1nc(N2CCCN(C(=O)CC(F)(F)F)CC2)cs1 [compound 95] | 500 to 2800 |  | 

SMILES | Ki (PKC theta) [nM] | Ki (PKC alpha kinase) [nM] | Ki (PKC delta kinase) [nM]
Nc1ncccc1C(=O)c1cccc(N2CCCN(C(=O)C3CCCCC3)CC2)n1 [compound 38] | 500 to 2800 |  | 
COC(=O)N1CCCN(c2cccc(C(=O)c3cccnc3N)n2)CC1 [compound 9] | 500 to 2800 |  | 500 to 2800
Nc1ncccc1C(=O)c1cccc(N2CCC(N)C2)n1 (stereo not shown) [compound 85] | 500 to 2800 |  | 
Nc1ncc(Br)cc1C(=O)c1cccc(N2CCCC(c3ccccc3)C2)n1 (stereo not shown) [compound 145] | 500 to 2800 |  | 
Nc1ncc(-c2cc3ccccc3[nH]2)cc1C(=O)c1cccc(N2CCCNCC2)n1 [compound 168] | 500 to 2800 |  | 
CNc1cnc(N)c(C(=O)c2cccc(N3CCCNCC3)n2)c1 [compound 220] | 500 to 2800 | 500 to 2800 | 
NC(=O)C1CCCN(c2cccc(C(=O)c3cc(Br)cnc3N)n2)C1 (stereo not shown) [compound 122] | 500 to 2800 |  | 
Nc1ncccc1C(=O)c1ccc(Cl)c(N2CCCNCC2)n1 [compound 242] | 500 to 2800 |  | 
Nc1ncccc1C(=O)c1cccc(C2CCNCC2)n1 [compound 257] | 500 to 2800 |  | 
Nc1ncccc1C(=O)c1cccc(N2CCN[C@H](Cc3ccccc3)C2)n1 [compound 250] | 500 to 2800 |  | 
CNC1CCN(c2cccc(C(=O)c3cccnc3N)n2)CC1 [compound 159] | 500 to 2800 |  | 
N#CCCN1CCN(c2cccc(C(=O)c3cc(Br)cnc3N)n2)CC1 [compound 96] | 500 to 2800 |  | 
Nc1ncccc1C(=O)c1cccc(N2CCCN(C(=O)Oc3ccccc3Cl)CC2)n1 [compound 15] | 500 to 2800 |  | 
Nc1ncccc1C(=O)c1cccc(N2CCC(NC(=O)CC(F)(F)F)CC2)n1 [compound 129] | 500 to 2800 |  | 
Cc1cc(C(=O)c2cccnc2N)nc(N2CCCNCC2)c1 [compound 189] | 500 to 2800 |  | 
Nc1ncc(-c2cccnc2)cc1C(=O)c1cccc(N2CCNC(c3ccccc3)C2)n1 (stereo not shown) [compound 275] | 500 to 2800 |  | 
Nc1ncccc1C(=O)c1ccnc(N2CCCNCC2)n1 [compound 111] | 500 to 2800 |  | 
Nc1ncc(Br)cc1C(=O)c1cccc(N2CCNC(=O)C2)n1 [compound 196] | 500 to 2800 |  | 
CC(C)(C)C(O)C(=O)N1CCCN(c2cccc(C(=O)c3cccnc3N)n2)CC1 (stereo not shown) [compound 41] | 500 to 2800 |  | > 2800
Nc1ncc(Br)cc1C(=O)c1cccc(NC[C@H]2CCCC[C@@H]2O)n1 [compound 174] | 500 to 2800 |  | 
Nc1ncccc1C(=O)c1cccc(N2CCCN(C(=O)Oc3ccccc3)CC2)n1 [compound 52] | 500 to 2800 |  | 
Nc1ncccc1C(=O)c1cccc(N2CCCN(C(=O)CC3CCCCC3)CC2)n1 [compound 39] | 500 to 2800 |  | > 2800
Nc1ncc(C2=CCCCC2)cc1C(=O)c1cccc(N2CCCNCC2)n1 [compound 185] | 500 to 2800 |  | 
Nc1ncccc1C(=O)c1cccc(N2CCCN(Cc3ccccc3)CC2)n1 [compound 160] | 500 to 2800 |  | 

SMILES | Ki (PKC theta) [nM] | Ki (PKC alpha kinase) [nM] | Ki (PKC delta kinase) [nM]
CC(C)N(Cc1ccccc1)C(=O)c1ccc(C(=O)c2cccnc2N)s1 [compound 48] | 500 to 2800 |  | 
Nc1ncccc1C(=O)c1cc(N2CCCNCC2)cs1 [compound 84] | 500 to 2800 |  | 
Nc1ncccc1C(=O)c1cccc(N2CCCN(C(=O)c3ccccc3)CC2)n1 [compound 32] | 500 to 2800 |  | > 2800
CC(C)(O)C#Cc1cnc(N)c(C(=O)c2cccc(N3CCCNCC3)n2)c1 [compound 147] | 500 to 2800 |  | 
C=Cc1cnc(N)c(C(=O)c2cccc(N3CCCN(C(=O)OC(C)(C)C)CC3)n2)c1 [compound 60] | 500 to 2800 |  | 
Cc1ccc(C2CN(c3cccc(C(=O)c4cccnc4N)n3)CCN2)cc1 (stereo not shown) [compound 336] |  | 500 to 2800 | 500 to 2800
Cc1ccc(N2CCNCC2)nc1C(=O)c1cccnc1N [compound 230] |  | 500 to 2800 | 500 to 2800
Nc1ncc(Cc2ccccc2)cc1C(=O)c1cccc(N2CCCNCC2)n1 [compound 188] |  | < 50 | 50 to 500
CN1CCN(c2cccc(C(=O)c3cccnc3N)n2)CC1 [compound 216] | 500 to 2800 |  | 
Nc1ncc(Br)cc1C(=O)c1cccc(NCCN2CCCCC2)n1 [compound 141] | 500 to 2800 |  | 
CC(C)[C@H]1CN(c2ccc(C(F)(F)F)c(C(=O)c3cccnc3N)n2)CCN1 [compound 338] |  | 500 to 2800 | 50 to 500
CC(C)C[C@H]1CN(c2ccc(CC(F)F)c(C(=O)c3cccnc3N)n2)CCN1 [compound 401] |  | 500 to 2800 | 50 to 500
C=Cc1cnc(N)c(C(=O)c2nc(N3CCNC(c4ccccc4)C3)ccc2Cl)c1 (stereo not shown) [compound 332] |  | < 50 | 50 to 500
Nc1ncc(CCc2ccccc2)cc1C(=O)c1cccc(N2CCCNCC2)n1 [compound 187] |  | < 50 | 50 to 500
Nc1ncccc1C(=O)c1cccc(N2CCCN(C(=O)C3CC3)CC2)n1 [compound 36] | 500 to 2800 |  | 
Cc1cccc(C2CN(c3ccc(C(F)(F)F)c(C(=O)c4cccnc4N)n3)CCN2)c1 (stereo not shown) [compound 392] |  | < 50 | 50 to 500
CC[C@@H]1CNCCN1c1cccc(C(=O)c2cccnc2N)n1 [compound 243] |  | 500 to 2800 | 50 to 500
Nc1ncccc1C(=O)c1nc(N2CCNCC2)cnc1Cl [compound 343] |  | 500 to 2800 | 50 to 500
CN(C)CCN(Cc1ccccc1)c1cccc(C(=O)c2cc(Br)cnc2N)n1 [compound 143] | 500 to 2800 |  | 
C=Cc1ccc(N2CCNCC2)nc1C(=O)c1cccnc1N [compound 342] |  | 500 to 2800 | 50 to 500
CC(C)[C@H](N)CNc1ccc(C(F)(F)F)c(C(=O)c2cccnc2N)n1 [compound 395] |  | 500 to 2800 | 500 to 2800
Nc1ncccc1C(=O)c1nc(N2CCNC(c3ccccc3)C2)ccc1OC(F)F (stereo not shown) [compound 360] |  | 500 to 2800 | 50 to 500
